Data taken from US20230265044A1, “SALT OF DEMETHYL TRAMADOL AND USE THEREOF” (priority 2020, published 2023).
In brackets after ≈: the same amount, converted by molar mass.

What was measured:
[1] = Determination on hygroscopicity (80% RH, 24 h); type: physicochemical
Procedure: Test process: a weighing bottle was taken, put into a dryer with 80% RH saturated solution, balanced for 24 h, taken out, and weighed as m1; a sample was taken, spread into the weighing bottle with a thickness about 1 mm, and weighed as m2; and then the weighing bottle was put into the dryer with 80% RH saturated solution, balanced for 24 h, and weighed as m3.
Calculation formula: hygroscopicity=(m3−m2)/(m2−m1)*100%

[2] = Determination on solubility in water (HPLC, stirred 24 hr); type: physicochemical; details: for solubility: in water, stirred for 24 hr; for approximate solubility: water needed to dissolve 1 g: per 1 g of sample, converted from solubility
Procedure: 1. chromatographic column: Agilent Pursuit C18, 3um, 4.6*150 mm
2. Mobile phase: 0.1% trifluoroacetic acid: acetonitrile=20: 80, flow rate: 1.0 mL/min, wavelength: 215 nm, column temperature: 35° C., injection volume: 10 μl;
3. Mobile phase preparation process:
1.0 mL of trifluoroacetic acid was added into 1000 mL of water, mixed well, and ultrasonicated;
4. Sample preparation process
About 10 mg of the sample to be tested was weighed and added into 1 mL of water, stirred for 24 hr, and centrifuged. The supernatant was taken as the sample for testing solubility. 10 mg of demethyl tramadol palmitate with the same structure as the sample to be tested was weighed and placed in a 100 mL measuring flask, 80% aqueous methanol solution was added to dissolve and dilute the demethyl tramadol palmitate to the scale, which was used as the corresponding reference solution.

Compound | hygroscopicity [1] [%] | solubility [2] | approximate solubility: water needed to dissolve 1 g [2] [mL]
CN(C)CC1CCCCC1(O)c1cccc(O)c1 (racemic) [Example 2, Demethyl Tramadol Palmitate Monosalt] | 6.3 | 0.7 mg/mL | 1428.6
CN(C)C[C@H]1CCCC[C@]1(O)c1cccc(O)c1 (racemic) [racemic demethyl tramadol free base, (±)-(1RS, 2RS)-2-[(N,N dimethylamino)methylene]-1-hydroxy-cyclohexyl phenol] | – | 1.4 mg/mL (≈ 5.61 mM) | 714.3
CN(C)C[C@H]1CCCC[C@]1(O)c1cccc(O)c1.Cl (racemic) [racemic demethyl tramadol hydrochloride] | – | higher than 200 mg/mL | ≤ 5
racemic demethyl tramadol acetate | – | higher than 50 mg/mL | ≤ 20
